From the NIST ThermoML archive (doi:10.1016/j.fluid.2010.04.010)
Numbers after ± are expanded uncertainties.

Test: activity coefficient (dimensionless); of the first substance listed, at infinite dilution; xn = mol fraction of the nth substance listed
Conditions: Liquid, Dilutor technique, x1 = 0

Row | SMILES | activity coefficient (303.15 K) | activity coefficient (313.15 K) | activity coefficient (323.15 K) | activity coefficient (333.15 K)
1 | c1ccccc1 [benzene] + CCCCCC[n+]1cccc(C)c1.O=S(=O)([N-]S(=O)(=O)C(F)(F)F)C(F)(F)F | 0.673 ± 0.004 | 0.683 ± 0.004 | 0.691 ± 0.004 | 0.701 ± 0.004
2 | c1ccccc1 [benzene] + CCCCCCn1cc[n+](C)c1.F[B-](F)(F)F | 1.385 ± 0.004 | 1.446 ± 0.004 | 1.562 ± 0.004 | 1.912 ± 0.004
3 | c1ccccc1 [benzene] + CCCCn1cc[n+](C)c1.F[B-](F)(F)F |  | 2.341 ± 0.004 | 2.246 ± 0.004 | 2.218 ± 0.004
4 | C1=CCCCC1 [cyclohexene] + CCCCCC[n+]1cccc(C)c1.O=S(=O)([N-]S(=O)(=O)C(F)(F)F)C(F)(F)F | 3.337 ± 0.004 | 3.205 ± 0.004 | 3.131 ± 0.004 | 3.018 ± 0.004
5 | C1=CCCCC1 [cyclohexene] + CCCCCCn1cc[n+](C)c1.F[B-](F)(F)F | 7.74 ± 0.004 | 7.632 ± 0.004 | 7.496 ± 0.004 | 7.052 ± 0.004
